Read-outs that look alike come from different tables or passages of the source. Marks after values point to notes of the source that are not given here.
Assays:
AR = AR antagonistic activity: AR / PSA ARE1 luciferase reporter gene assay in transfected LNCaP cells stimulated with 1 nM DHT; assay type: cell-based; conditions: treatment concentration: 3.3 µM, 24 h, normalised to 0.1% DMSO and 30 µM enzalutamide
Description: LNCaP cells were plated in a 6-well plate (Corning, 3516) at 8 × 10^5 cells/well.
AR and PSA ARE1 reporter gene plasmids (Bio (Anhui) Co., Ltd.) and transfection reagents Lipo3000 and P3000 (Lipofectamine™ 3000) (a total of 2.5 µg of plasmids, i.e., 1.25 µg of each plasmid, were added to each well) were left to stand and incubated for 10 min, and then 250 µL of the above transfection reagents were added dropwise to each well containing cells and co-incubated with the cells for 24 h.
The cells were washed with PBS, and the medium was replaced with a phenol red-free RPMI-1640 medium containing 5% carbon adsorption serum (or 10% fetal bovine serum and 1% penicillin and streptomycin). The cells were re-plated onto a 96-well plate (Corning, 3603) according to the number of cells plated (2 × 10^4 cells/well).
After cell plating, the test compound (or DMSO or positive control) was added. After at least 30 min of incubation, DHT (dihydrotestosterone) was added to the culture system at a final concentration of 1 nM. The culture system was then incubated in a carbon dioxide incubator.
Test compound: 10 mM stock solution, with a final concentration of 3.3 µM or 6.7 µM. Negative control: 0.1% DMSO. Positive control: 30 µM enzalutamide.
After the test compound (or DMSO or positive control) and DHT were co-incubated for 24 h, the luciferase signal was detected using the Vazyme Bright-Lite substrate. The medium was added at 70 µL/well, and the plate was shaken for 2 min, followed by reading of the luciferase signal.
Assay robustness was confirmed using the DMSO and low concentration control data: Ave_H = Ave(DMSO) [formula] Ave_L = Ave (30μMenzalutamide) [formula] Inhibition rate (%) = (Ave_H−Sample)/(Ave_H−Ave_L) × 100% [formula] Ave_H: the measurement of the negative control (0.1% DMSO); Ave_L: the measurement of the positive control (30 µM enzalutamide); Sample: the measurement of the test compound; The corresponding activity test results for the test compounds were specified in Table 1. Table 1. Corresponding activity test results for compounds disclosed herein

[1] = Metabolic stability assay in liver microsomes; assay type: in vitro ADME; conditions: pH 7.4, human liver microsome 0.5 mg/mL, 1 mM NADPH, compound 1 µM, 37 °C; for microsomal CLint at 1 µM: read-out: In vitro Clint; for half-life at 1 µM: read-out: In vitro T1/2
Description: The metabolic stability of compounds disclosed herein in liver microsomes was determined using the following method.
• 1. Liver microsome source: Human liver microsome (Corning, 452117) • 2. Na2HPO4 (Tianjin Guangfu Fine Chemical Research Institute, 20180130) • 3. KH2PO4 (Tianjin Guangfu Fine Chemical Research Institute, 20180920) • 4. MgCl2 (Tianjin Guangfu Fine Chemical Research Institute, 20191216) • 5. NADPH (Solarbio, 1216C022) • 6. Positive control compound verapamil (Sigma, MKBV4993V) • 7. AB Sciex Triple Quad 4000 liquid chromatography-mass spectrometry system
1. Preparation of 100 mM phosphate-buffered saline (PBS): 7.098 g Na2HPO4 was dissolved in 500 mL of purified water by sonication to give solution A. 3.400 g of KH2PO4 was dissolved in 250 mL of purified water by sonication to give solution B. Solution A was placed on a stirrer, and solution B was added slowly until the pH reached 7.4, so as to give a 100 mM PBS buffer. 2. Preparation of reaction system The reaction system was prepared according to the table below.
3. The reaction system was pre-incubated in a 37 °C water bath for 10 min. 40 µL of 10 mM NADPH solution (NADPH was dissolved in 100 mM phosphate-buffered saline) was added to the reaction system, with the final concentration of NADPH being 1 mM. A negative control was prepared by replacing the NADPH solution with 40 µL of phosphate-buffered saline. The negative control was used to exclude the effect of the chemical stability of the compound itself. 4. The reaction was initiated by adding 4 µL of 100 µM compound disclosed herein or positive control compound verapamil to the reaction system at a final concentration of 1 µM. 5. After 0.5 min, 15 min, 30 min, 45 min, and 60 min of mixing well by using a vortex oscillator, 50 µ L of the incubated sample was taken out, and glacial acetonitrile containing an internal standard of 4 folds was added to terminate the reaction. The sample was centrifuged at 3,220 g for 45 min. 90 µL of the supernatant was transferred to a feeding plate after the centrifugation was completed, and 90 µL ultrapure water was added. The mixture was well mixed for LC-MS/MS analysis.
All data were calculated by using Microsoft Excel software. The peak areas were determined by using an extracted ion chromatogram. The in vitro half-life (T1/2) of the test compound was determined by linear fitting of the natural logarithm of the elimination proportion of the test compound over time. In vitro half-life (T1/2) was calculated by the slope k: in vitro T1/2 = 0.693/k [formula]
The in vitro intrinsic clearance (in vitro CLint, unit: µL/min/mg protein) was calculated using the following formula: in vitro CLint = k × volume of incubation solution/enzyme protein content; [formula]

in vitro = conditions: human, blood
Description: (§1) 1 mM stock solutions of the test compounds were prepared in DMSO, and a 1 mM stock solution of the reference compound propantheline was prepared in acetonitrile.
(§2) 4 µL of test compound (or reference compound) stock solution was added to 796 µL of pre-incubated human blood (whole blood) at a final concentration of 5 µM. The final concentration of the solvent was 0.5%. At different time points (including 5 min, 15 min, 30 min, 60 min, and 120 min), a 50 µL aliquot of the whole blood containing the sample was added to a new tube and incubated in a 37 °C water bath with shaking at 60 rpm. The treatment was performed in duplicate. At designated time points, 300 µL of room-temperature quenching solution (a solution of acetonitrile containing internal standards (100 nM alprazolam, 500 nM labetalol, and 2 µM ketoprofen)) was added to the whole blood sample containing the sample to terminate the reaction. 50 µL of whole blood containing the sample was added to a new tube containing 300 µL of room-temperature quenching solution to prepare a sample at 0 min. All samples were vortexed for 5 min. The samples in the plate were centrifuged at 3220 g for 30 min at 4 °C to precipitate the proteins. 100 µL of the supernatant was transferred to a new 96-well plate containing 100 µL of water for LC-MS/MS analysis.
(§3) The peak area ratio was determined by using an extracted ion chromatogram. The proportion of remaining compound at each time point was calculated according to the following formula: Remaning proporion t min (%) = peak area ratio t min / peak area ratio 0 min × 100% [formula] • Peak area ratio t min: peak area ratio of reference compound to test compound at t min; • Peak area ratio 0 min: peak area ratio of reference compound to test compound at time zero.
(§4) The slope value was determined by linear regression on the curve of the natural logarithm of the remaining proportion of the test compound versus the incubation time.
(§5) Determination of in vitro half-life (in vitro t1/2) from the slope value: in vitro t1/2 = 0.693/k [formula] in the formula, k is the rate constant (k = -slope value)

C57BL/6 mice [2] = conditions: mouse, in vivo
From the text: (§6) Animal information: C57BL/6 mice (male, aged 4-6 weeks, about 18-20 g), purchased from Shanghai Lingchang Biotechnology Co., Ltd. The mice were bred in an SPF-level environment within independently ventilated cages.
(§7) Skin preparation: After 1-2 weeks of acclimation, the hairs in a 2 cm × 3 cm area of the back of the mice were shaved to confirm that the hairs of the mice were in the telogen phase (the skin was pink) and the skin was not damaged.
(§8) Treatment: On day 3 after shaving, the mice were grouped for treatment. […] The control group received the control solvent. 12 mice were in each group.
(§9) The mice were weighed on days 10, 13, 18, 21, 25, and 30, and the hair growth state was scored and photographed.
(§10) The scoring criteria are as follows: • 0: no growth, with pink skin in the shaved area; • 1: the skin in the shaved area was gray (an increase of less than 20%); • 2: the skin in the shaved area was black (more than 20% but less than 40%); • 3: the skin in the shaved area was black with a little hair growth (more than 40% but less than 60%); • 4: the skin in the shaved area was black with partial hair growth (more than 60% but less than 80%); • 5: basically complete hair growth (80%-100% growth) in the shaved area.

[3] = 5 µM
Description: as §1, §2, §3, §4, §5

C57BL/6 mice [4] = assay: In vivo pharmacodynamic study 1: hair growth scoring in shaved telogen-phase mice, topical treatment; conditions: for Score (mean±SD): hair growth score 0-5, topical twice daily, compound 001 2 wt%, compound 008 0.5 wt%
From the text: as §6, §7, §8, §9, §10

C57BL/6 mice [5] = assay: In vivo pharmacodynamic study 2: hair growth scoring in shaved telogen-phase mice, topical treatment; conditions: for Score (mean±SD): hair growth score 0-5, 0.5 wt% topical twice daily
From the text: Vehicle: propylene glycol/ethanol (30:70, v/v)
A 1 cm × 1 cm area in the center of the back skin was selected as the treatment area.
The control group received the control solvent. 12 mice were in each group.
The mice were weighed on days 9, 12, 15, 19, and 22, and the hair growth state was scored and photographed.

Whole blood stability = conditions: human
Description: as §1, §2, §3, §4, §5

[6] = at the investigated doses (0.5 wt%, BID topical)

## CCOC(=O)C(C)(O)C(=O)Nc1cnc(C#N)c(SC)c1 (single isomer, unassigned) [Compound 016B]
AR
  AR antagonism (inhibition rate, %): 90.50^a %
[1]; microsomes
  microsomal CLint at 1 µM: 88.3 µL/min/mg
  half-life at 1 µM: 0.262 h
In vitro
  half-life at 5 µM: 1.69 h

## CCOC(=O)C(C)(O)C(=O)Nc1cnc(C#N)c(C(F)(F)F)c1 (stereo not shown) [Compound 001, Ethyl 3-[[6-cyano-5-(trifluoromethyl)-pyridin-3-yl]amino]-2-hydroxy-2-methyl-3-oxopropanoate]
AR
  AR antagonism (inhibition rate, %): 86.6^a %
C57BL/6 mice [2]
  impact on the body weight of the mice: no significant impact
  signs of erythema, dehiscence, desquamation, and the like on the skin: no signs
[3]
  Human whole blood half-life T1/2: 2.9982 h
C57BL/6 mice [4]; Day 0
  Score (mean±SD): 0
C57BL/6 mice [4]; Day 10
  Score (mean±SD): 0.6±0.5
C57BL/6 mice [4]; Day 13
  Score (mean±SD): 0.9±0.9
C57BL/6 mice [4]; Day 18
  Score (mean±SD): 1.3±1.4
C57BL/6 mice [4]; Day 21
  Score (mean±SD): 1.9±1.8
C57BL/6 mice [4]; Day 25
  Score (mean±SD): 2.4±2.2
C57BL/6 mice [4]; Day 30
  Score (mean±SD): 3.0±1.8
C57BL/6 mice [4]; compound 001 at 2%, compound 008 at 0.5%, BID topically at 20 µL/cm^2
  effect on mouse hair growth: significant promoting effect
C57BL/6 mice [4]; vs. vehicle control, 001 P < 0.01, 008 P < 0.05
  day of the treatment from which hair growth was significantly promoted: ≥ 10 days

## CCOC(=O)[C@@](C)(O)C(=O)Nc1cnc(C#N)c(SC)c1 [Compound 016A, ethyl (2S)-3-[(6-cyano-5-methylthio-pyridin-3-yl)amino]-2-hydroxy-2-methyl-3-oxopropanoate]
AR
  AR antagonism (inhibition rate, %): 99.98^a %
[1]; human liver microsomes
  microsomal CLint at 1 µM: 91.8 µL/min/mg
  half-life at 1 µM: 0.252 h
C57BL/6 mice [5]; 0.5 wt%, BID topically at 20 µL/cm^2
  effect on hair growth: significant promoting effect
C57BL/6 mice [5]; Day 0
  Score (mean±SD): 0
C57BL/6 mice [5]; Day 9
  Score (mean±SD): 0.1±0.3
C57BL/6 mice [5]; Day 12
  Score (mean±SD): 0.1±0.3
C57BL/6 mice [5]; Day 15
  Score (mean±SD): 0.5±0.8
C57BL/6 mice [5]; Day 19
  Score (mean±SD): 1.7±1.5
C57BL/6 mice [5]; Day 22
  Score (mean±SD): 2.9±1.6
C57BL/6 mice [5]; [6]
  impact on the body weight of the mice: no significant impact
  signs of erythema, dehiscence, desquamation, and the like on the skin: no signs
C57BL/6 mice [5]; vs. vehicle control, P < 0.0001
  day of the treatment from which hair growth was significantly promoted: ≥ 19 days
Whole blood stability
  half-life at 5 µM: 2.2 h

Reference: patent EP4772498A1, “COMPOUND ACTING AS ANDROGEN RECEPTOR ANTAGONIST” (China Pharmaceutical University, priority 2023, dated 2025)
